Results as given in patent US9181255B2, “Fused heteroaromatic pyrrolidinones as SYK inhibitors” (Takeda Pharmaceutical Company Limited, priority 2009, dated 2015).

biological target: SYK (Homo sapiens, UniProt P43405); assay: SYK inhibition assay: SYK-mediated phosphorylation of FAM-labeled substrate (Caliper microfluidic); format: biochemical; details: read-out: SYK Inhibition (pIC50) (converted)

SMILES	IC50
CC(C)C[C@@H](Nc1nc(-c2ccsc2)c2c(c1F)CNC2=O)C(N)=O [Example 110, (R)-2-(7-Fluoro-3-oxo-4-(thiophen-3-yl)-2,3-dihydro-1H-pyrrolo[3,4-c]pyridin-6-ylamino)-4-methylpentanamide]	50.1 nM
N[C@H]1CCCC[C@H]1Nc1nc(-c2cnc3ccccn23)c2c(c1F)CNC2=O [Example 51, 6-((1R,2S)-2-aminocyclohexylamino)-7-fluoro-4-(imidazo[1,2-a]pyridin-3-yl)-1H-pyrrolo[3,4-c]pyridin-3(2H)-one]	63.1 nM
N[C@H]1COCC[C@H]1Nc1nc(-c2cccs2)c2c(c1F)CNC2=O [Example 127, 6-((3R,4R)-3-Aminotetrahydro-2H-pyran-4-ylamino)-7-fluoro-4-(thiophen-2-yl)-1H-pyrrolo[3,4-c]pyridin-3(2H)-one]	6.31 nM
Nc1ncc(-c2nc(N[C@@H]3CCCC[C@@H]3N)c(F)c3c2C(=O)NC3)s1 [Example 112, 6-((1R,2S)-2-Aminocyclohexylamino)-4-(2-aminothiazol-5-yl)-7-fluoro-1H-pyrrolo[3,4-c]pyridin-3(2H)-one]	2 nM
Cc1cccc(Nc2nc(N[C@@H]3CCOC[C@@H]3N)c(F)c3c2C(=O)NC3)c1 [Example 89, 6-((3R,4R)-3-Aminotetrahydro-2H-pyran-4-ylamino)-7-fluoro-4-(m-tolylamino)-1H-pyrrolo[3,4-c]pyridin-3(2H)-one]	3.98 nM
CCn1cc(-c2nc(N[C@@H]3CCCC[C@@H]3N)c(F)c3c2C(=O)NC3)cn1 [Example 60, 6-((1R,2S)-2-Aminocyclohexylamino)-4-(1-ethyl-1H-pyrazol-4-yl)-7-fluoro-1H-pyrrolo[3,4-c]pyridin-3(2H)-one]	15.8 nM
Cn1cc(-c2nc(N[C@@H]3CCCC[C@@H]3N)c(Br)c3c2C(=O)NC3)cn1 [Example 99, 6-((1R,2S)-2-Aminocyclohexylamino)-7-bromo-4-(1-methyl-1H-pyrazol-4-yl)-1H-pyrrolo[3,4-c]pyridin-3(2H)-one]	3.16 nM
CCCn1cc(-c2nc(N[C@@H]3CCCC[C@@H]3N)nc3c2C(=O)NC3)cn1 [Example 21, 2-((1R,2S)-2-Aminocyclohexylamino)-4-(1-propyl-1H-pyrazol-4-yl)-6,7-dihydro-5H-pyrrolo[3,4-c]pyrimidin-5-one]	501 nM
CC(C)Cn1cc(-c2nc(N[C@@H]3CCCC[C@@H]3N)nc3c2C(=O)NC3)cn1 [Example 15, 2-((1R,2S)-2-Aminocyclohexylamino)-4-(1-isobutyl-1H-pyrazol-4-yl)-6,7-dihydro-5H-pyrrolo[3,4-c]pyrimidin-5-one]	1000 nM
N[C@H]1CCCC[C@H]1Nc1nc(-c2ccsc2)c2c(c1F)CNC2=O [Example 106, 6-((1R,2S)-2-Aminocyclohexylamino)-7-fluoro-4-(thiophen-3-yl)-1H-pyrrolo[3,4-c]pyridin-3(2H)-one]	2.51 nM
Cc1ccc(-c2nc(N[C@@H]3CCCC[C@@H]3N)c(F)c3c2C(=O)NC3)s1 [Example 108, 6-((1R,2S)-2-Aminocyclohexylamino)-7-fluoro-4-(5-methylthiophen-2-yl)-1H-pyrrolo[3,4-c]pyridin-3(2H)-one]	2.51 nM
N[C@H]1CCCC[C@H]1Nc1nc(-c2cccs2)c2c(c1F)CNC2=O [Example 129, 6-((1R,2S)-2-Aminocyclohexylamino)-7-fluoro-4-(thiophen-2-yl)-1H-pyrrolo[3,4-c]pyridin-3(2H)-one]	3.98 nM
Cc1ccc(-c2nc(N[C@@H]3CCOC[C@@H]3N)c(F)c3c2C(=O)NC3)s1 [Example 123, 6-((3R,4R)-3-Aminotetrahydro-2H-pyran-4-ylamino)-7-fluoro-4-(5-methylthiophen-2-yl)-1H-pyrrolo[3,4-c]pyridin-3(2H)-one]	7.94 nM
CN[C@H]1CCCC[C@H]1Nc1nc2c(c(Nc3cccc(C)c3)n1)C(=O)NC2 [Example 38, 2-((1R,2S)-2-(Methylamino)cyclohexylamino)-4-(m-tolylamino)-6,7-dihydro-5H-pyrrolo[3,4-d]pyrimidin-5-one]	631 nM
Cc1cccc(Nc2nc(N[C@@H]3CCCC[C@@H]3O)nc3c2C(=O)NC3)c1 (relative stereo) [Example 11, Cis-2-(2-Hydroxycyclohexylamino)-4-(m-tolylamino)-6,7-dihydro-5H-pyrrolo[3,4-d]pyrimidin-5-one]	1260 nM
CC1NC(=O)c2c(-c3cnn(C)c3)nc(N[C@@H]3CCCC[C@@H]3N)c(F)c21 (stereo partly drawn) [Example 124, 6-((1R,2S)-2-Aminocyclohexylamino)-7-fluoro-1-methyl-4-(1-methyl-1H-pyrazol-4-yl)-1H-pyrrolo[3,4-c]pyridin-3(2H)-one]	25.1 nM
CNC(=O)[C@@H](CC(C)C)Nc1nc(-c2cnn(C)c2)c2c(c1F)CNC2=O [Example 107, (R)-2-(7-Fluoro-4-(1-methyl-1H-pyrazol-4-yl)-3-oxo-2,3-dihydro-1H-pyrrolo[3,4-c]pyridin-6-ylamino)-N,4-dimethylpentanamide]	501 nM
N[C@H]1CCCC[C@H]1Nc1nc2c(c(-c3csc4ccccc34)n1)C(=O)NC2 [Example 17, 2-((1R,2S)-2-Aminocyclohexylamino)-4-(benzo[b]thiophen-3-yl)-6,7-dihydro-5H-pyrrolo[3,4-c]pyrimidin-5-one]	39.8 nM
N[C@H]1CCCC[C@H]1Nc1nc(-c2cnn3ccccc23)c2c(c1F)CNC2=O [Example 31, 6-((1R,2S)-2-Aminocyclohexylamino)-7-fluoro-4-(pyrazolo[1,5-a]pyridin-3-yl)-1H-pyrrolo[3,4-c]pyridin-3(2H)-one]	2.51 nM
N[C@H]1CCCC[C@H]1Nc1nc2c(c(-c3ccccc3)n1)C(=O)NC2 [Example 16, 2-((1R,2S)-2-Aminocyclohexylamino)-4-phenyl-6,7-dihydro-5H-pyrrolo[3,4-d]pyrimidin-5-one]	3160 nM
CS(=O)(=O)c1cccc(Nc2nc(N[C@@H]3CCCC[C@@H]3N)cc3c2C(=O)NC3)c1 [Example 33, 6-((1R,2S)-2-Aminocyclohexylamino)-4-(3-(methylsulfonyl)phenylamino)-1H-pyrrolo[3,4-c]pyridin-3(2H)-one]	50.1 nM
N[C@@H]1[C@H](Nc2nc(-c3cnn(C(F)F)c3)c3c(c2F)CNC3=O)CCCC1(F)F (relative stereo) [Example 68, 6-(cis-2-Amino-3,3-difluorocyclohexylamino)-4-(1-(difluoromethyl)-1H-pyrazol-4-yl)-7-fluoro-1H-pyrrolo[3,4-c]pyridin-3(2H)-one]	100 nM
Cc1c(N[C@@H]2CCCC[C@@H]2N)nc(-c2cnn(C)c2)c2c1CNC2=O [Example 90, 6-((1R,2S)-2-Aminocyclohexylamino)-7-methyl-4-(1-methyl-1H-pyrazol-4-yl)-1H-pyrrolo[3,4-c]pyridin-3(2H)-one]	10 nM
Cn1cc(-c2nc(N3CCC[C@H](N)C3)c(F)c3c2C(=O)NC3)cn1 [Example 96, (S)-6-(3-Aminopiperidin-1-yl)-7-fluoro-4-(1-methyl-1H-pyrazol-4-yl)-1H-pyrrolo[3,4-c]pyridin-3(2H)-one]	200 nM
N[C@H]1COCC[C@H]1Nc1nc(-c2ccsc2)c2c(c1F)CNC2=O [Example 103, 6-((3R,4R)-3-Aminotetrahydro-2H-pyran-4-ylamino)-7-fluoro-4-(thiophen-3-yl)-1H-pyrrolo[3,4-c]pyridin-3(2H)-one]	126 nM
